In patent US8124601B2, “Compounds for the treatment of Hepatitis C” (Bristol-Myers Squibb Company, priority 2007, dated 2012):
Where two headings read alike, the source gives them in different places.

Tests used:
HCV NS5B = biological target: T1, HCV NS5B (Hepatitis C virus genotype 1b, UniProt Q9WMX2); test: Modified HCV NS5B RdRp enzyme assay (preincubation protocol); format: biochemical
T1 construct: The protein was expressed with an 18 amino acid C-terminal truncation to enhance the solubility; made in house; host or cells: E. coli BL21(DE3)
T1 sequence (Q9WMX2 2420-2992): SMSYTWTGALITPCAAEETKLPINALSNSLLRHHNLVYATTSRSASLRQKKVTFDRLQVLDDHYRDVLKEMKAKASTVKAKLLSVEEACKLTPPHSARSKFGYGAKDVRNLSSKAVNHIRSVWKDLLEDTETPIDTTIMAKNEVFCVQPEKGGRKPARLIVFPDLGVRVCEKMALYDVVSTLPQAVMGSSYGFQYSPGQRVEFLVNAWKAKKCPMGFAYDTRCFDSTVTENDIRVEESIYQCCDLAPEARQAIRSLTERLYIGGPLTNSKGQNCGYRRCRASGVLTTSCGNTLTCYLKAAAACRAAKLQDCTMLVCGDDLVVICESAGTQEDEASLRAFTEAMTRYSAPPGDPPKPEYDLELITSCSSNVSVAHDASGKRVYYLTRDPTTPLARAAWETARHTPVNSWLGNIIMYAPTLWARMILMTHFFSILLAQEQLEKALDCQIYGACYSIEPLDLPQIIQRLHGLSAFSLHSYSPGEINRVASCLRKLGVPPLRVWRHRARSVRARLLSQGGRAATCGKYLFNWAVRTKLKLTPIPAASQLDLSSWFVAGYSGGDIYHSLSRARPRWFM
Description: HCV NS5B RdRp cloning, expression, and purification. The cDNA encoding the NS5B protein of HCV, genotype 1b, was cloned into the pET21a expression vector. The protein was expressed with an 18 amino acid C-terminal truncation to enhance the solubility. The E. coli competent cell line BL21(DE3) was used for expression of the protein. Cultures were grown at 37° C. for ˜4 hours until the cultures reached an optical density of 2.0 at 600 nm. The cultures were cooled to 20° C. and induced with 1 mM IPTG. Fresh ampicillin was added to a final concentration of 50 μg/ml and the cells were grown overnight at 20° C.
Cell pellets (3 L) were lysed for purification to yield 15-24 mgs of purified NS5B. The lysis buffer consisted of 20 mM Tris-HCl, pH 7.4, 500 mM NaCl, 0.5% triton X-100, 1 mM DTT, 1 mM EDTA, 20% glycerol, 0.5 mg/ml lysozyme, 10 mM MgCl2, 15 ug/ml deoxyribonuclease I, and Complete TM protease inhibitor tablets (Roche). After addition of the lysis buffer, frozen cell pellets were resuspended using a tissue homogenizer. To reduce the viscosity of the sample, aliquots of the lysate were sonicated on ice using a microtip attached to a Branson sonicator. The sonicated lysate was centrifuged at 100,000×g for 1 hr at 4° C. and filtered through a 0.2 μm filter unit (Corning).
The protein was purified using two sequential chromatography steps: Heparin sepharose CL-6B and polyU sepharose 4B (Pharmacia). The chromatography buffers were identical to the lysis buffer but contained no lysozyme, deoxyribonuclease I, MgCl2 or protease inhibitor and the NaCl concentration of the buffer was adjusted according to the requirements for charging the protein onto the column. Each column was eluted with a NaCl gradient which varied in length from 5-50 column volumes depending on the column type. After the final chromatography step, the resulting purity of the enzyme is >90% based on SDS-PAGE analysis. The enzyme was aliquoted and stored at −80° C.
Standard HCV NS5B RdRp enzyme assay. HCV RdRp genotype 1b assays were run in a final volume of 60 μl in 96 well plates (Corning 3600). The assay buffer is composed of 20 mM Hepes, pH 7.5, 2.5 mM KCl, 2.5 mM MgCl2, 1 mM DTT, 1.6 U RNAse inhibitor (Promega N2515), 0.01 mg/ml BSA (Sigma B6917), and 2% glycerol. All compounds were serially diluted (3-fold) in DMSO and diluted further in water such that the final concentration of DMSO in the assay was 2%. HCV RdRp genotype 1b enzyme was used at a final concentration of 28 nM. A polyA template was used at 6 nM, and a biotinylated oligo-dT12 primer was used at 180 nM final concentration. Template was obtained commercially (Amersham 27-4110). Biotinylated primer was prepared by Sigma Genosys. 3H-UTP was used at 0.6 μCi (0.29 μM total UTP). Reactions were initiated by the addition of enzyme, incubated at 30° C. for 60 min, and stopped by adding 25 μl of 50 mM EDTA containing SPA beads (4 μg/μl, Amersham RPNQ 0007). Plates were read on a Packard Top Count NXT after >1 hr incubation at room temperature.
Modified HCV NS5B RdRp enzyme assay. A modified enzyme assay was performed essentially as described for the standard enzyme assay except for the following: The biotinylated oligo dT12 primer was precaptured on streptavidin-coated SPA beads by mixing primer and beads in assay buffer and incubating at room temperature for one hour. Unbound primer was removed after centrifugation. The primer-bound beads were resuspended in 20 mM Hepes buffer, pH 7.5 and used in the assay at final concentrations of 20 nM primer and 0.67 μg/μl beads. Order of addition in the assay: enzyme (1.75 nM) was added to diluted compound followed by the addition of a mixture of template (0.36 nM), 3H-UTP (0.6 μCi, 0.29 μM), and primer-bound beads, to initiate the reaction; concentrations given are final. Reactions were allowed to proceed for 4 hours at 30° C.
IC50 values for compounds were determined using seven different [I]. […]

HCV replicon cells = test: HCV replicon FRET assay; format: cell-based
Description: FRET Assay Preparation. The HCV FRET screening assay was performed in 96-well cell culture plates. The FRET peptide (Anaspec, Inc.) (Taliani et al., Anal. Biochem. 1996, 240, 60-67) contains a fluorescence donor, EDANS, near one end of the peptide and an acceptor, DABCYL, near the other end. The fluorescence of the peptide is quenched by […] resonance energy transfer (RET) between the donor and the acceptor, but as the NS3 protease cleaves the peptide the products are released from RET quenching and the fluorescence of the donor becomes apparent. The assay reagent was made as follows: 5× cell Luciferase cell culture lysis reagent from Promega (#E153A) diluted to 1× with dH2O, NaCl added to 150 mM final, the FRET peptide diluted to 20 μM final from a 2 mM stock.
To prepare plates, HCV replicon cells, with or without a Renilla luciferase reporter gene, were trypsinized and plated in a 96-well plate with titrated test compounds added in columns 3 through 12; columns 1 and 2 contained a control compound (HCV control inhibitor), and the bottom row contained cells with DMSO only. The plates were then placed in a CO2 incubator at 37° C.
Assays. Subsequent to addition of the test compounds described above (FRET Assay Preparation), at various times the plate was removed and Alamar blue solution (Trek Diagnostics, #00-100) was added to measure cellular toxicity. After reading in a Cytoflour 4000 instrument (PE Biosystems), plates were rinsed with PBS and then used for FRET assay by the addition of 30 ul of the FRET peptide assay reagent described above (FRET Assay Preparation) per well. The plate was then placed into the Cytoflour 4000 instrument which had been set to 340 excite/490 emission, automatic mode for up to 20 cycles and the plate read in a kinetic mode. Typically, the signal to noise using an endpoint analysis after the reads was at least three-fold. Alternatively, after Alamar blue reading, plates were rinsed with PBS, then used for luciferase assay using the Promega Dual-Glo Luciferase Assay System or the Promega EnduRen Live Cell Substrate assay.
Compound analysis was performed by quantification of the relative HCV replicon inhibition and the relative cytotoxicity values. To calculate cytoxicity values, the average Alamar Blue fluorescence signals from the control wells were set as 100% non-toxic. The individual signals in each of the compound test wells were then divided by the average control signal and multiplied by 100% to determine […]. To calculate the HCV replicon inhibition values, an average background value was obtained from the two wells containing the highest amount of HCV control inhibitor at the end of the assay period. These numbers were similar to those obtained from naïve Huh-7 cells. The background numbers were then subtracted from the average signal obtained from the control wells and this number was used as 100% activity. The individual signals in each of the compound test wells were then divided by the averaged control values after background subtraction and multiplied by 100% to determine percent activity. EC50 values were calculated as the concentration which caused a 50% reduction in FRET or luciferase activity. The two numbers generated for the compound plate, percent cytoxicity and percent activity, were used to determine compounds of interest for further analysis.

SMILES	IC50 (HCV NS5B)	EC50 (HCV replicon cells; Hepatitis C virus)	EC50 (HCV replicon cells)
COc1ccc2c(c1)C1CC1(C(=O)N1CCN(C)C3(CCCC3)C1)Cn1c-2c(C2CCCCC2)c2ccc(C(=O)NS(=O)(=O)C(C)C)cc21 (stereo not drawn)	4.58 to 500 nM	4.58 to 500 nM	
CCCS(=O)(=O)NC(=O)c1ccc2c(C3CCCCC3)c3n(c2c1)CC1(C(=O)N2CCC4(CCCN4C(C)=O)CC2)CC1c1cc(OC)ccc1-3 (stereo not drawn)	4.58 to 500 nM	4.58 to 500 nM	
COc1ccc2c(c1)C1CC1(C(=O)N1CCCC3(CCN(C)C3=O)C1)Cn1c-2c(C2CCCCC2)c2ccc(C(=O)NS(=O)(=O)C(C)C)cc21 (stereo not drawn) [drawing 21]	4.58 to 500 nM	4.58 to 500 nM	
COc1ccc2c(c1)C1CC1(C(=O)N1CCC3(CCN(C(=O)OC(C)(C)C)C3)C1)Cn1c-2c(C2CCCCC2)c2ccc(C(=O)NS(=O)(=O)C(C)C)cc21 (stereo not drawn)	4.58 to 500 nM	4.58 to 500 nM	
COc1ccc2c(c1)C1CC1(C(=O)N1CCN(C)C3(CCCCC3)C1)Cn1c-2c(C2CCCCC2)c2ccc(C(=O)NS(=O)(=O)C(C)C)cc21 (stereo not drawn)	4.58 to 500 nM	4.58 to 500 nM	
COc1ccc2c(c1)C1CC1(C(=O)N1CCCC13CCN(C)CC3)Cn1c-2c(C2CCCCC2)c2ccc(C(=O)NS(=O)(=O)C(C)C)cc21 (stereo not drawn)	4.58 to 500 nM	4.58 to 500 nM	
CCCS(=O)(=O)NC(=O)c1ccc2c(C3CCCCC3)c3n(c2c1)CC1(C(=O)N2CCCC4(CCN(C)C4)C2)CC1c1cc(OC)ccc1-3 (stereo not drawn) [drawing 26]	4.58 to 500 nM		4.58 to 500 nM
CCCS(=O)(=O)NC(=O)c1ccc2c(C3CCCCC3)c3n(c2c1)CC1(C(=O)N2CCN(C)C4(CCCC4)C2)CC1c1cc(OC)ccc1-3 (stereo not drawn)	4.58 to 500 nM	4.58 to 500 nM	
CCCS(=O)(=O)NC(=O)c1ccc2c(C3CCCCC3)c3n(c2c1)CC1(C(=O)N2CCNC4(CCCCC4)C2)CC1c1cc(OC)ccc1-3 (stereo not drawn)	4.58 to 500 nM	4.58 to 500 nM	
CCCS(=O)(=O)NC(=O)c1ccc2c(C3CCCCC3)c3n(c2c1)CC1(C(=O)N2CCC4(CCCN4C(=O)OC(C)(C)C)CC2)CC1c1cc(OC)ccc1-3 (stereo not drawn)	4.58 to 500 nM	4.58 to 500 nM	
COc1ccc2c(c1)C1CC1(C(=O)N1CCCC3(CCN(C)C3)C1)Cn1c-2c(C2CCCCC2)c2ccc(C(=O)NS(=O)(=O)C(C)C)cc21 (stereo not drawn) [drawing 23]	4.58 to 500 nM	4.58 to 500 nM	
COc1ccc2c(c1)C1CC1(C(=O)N1CCCC3(CCN(C)C3)C1)Cn1c-2c(C2CCCCC2)c2ccc(C(=O)NS(=O)(=O)C(C)C)cc21 (stereo not drawn) [drawing 24]	4.58 to 500 nM		4.58 to 500 nM
COc1ccc2c(c1)C1CC1(C(=O)N1CCC3(CCCN3C)CC1)Cn1c-2c(C2CCCCC2)c2ccc(C(=O)NS(=O)(=O)C(C)C)cc21 (stereo not drawn)	4.58 to 500 nM	4.58 to 500 nM	
CCCS(=O)(=O)NC(=O)c1ccc2c(C3CCCCC3)c3n(c2c1)CC1(C(=O)N2CCNC4(CCCC4)C2)CC1c1cc(OC)ccc1-3 (stereo not drawn)	4.58 to 500 nM	4.58 to 500 nM	
CCCS(=O)(=O)NC(=O)c1ccc2c(C3CCCCC3)c3n(c2c1)CC1(C(=O)N2CCC4(CCCN4)CC2)CC1c1cc(OC)ccc1-3 (stereo not drawn)	4.58 to 500 nM	4.58 to 500 nM	
COc1ccc2c(c1)C1CC1(C(=O)N1CCNC3(CCCCC3)C1)Cn1c-2c(C2CCCCC2)c2ccc(C(=O)NS(=O)(=O)C(C)C)cc21 (stereo not drawn)	4.58 to 500 nM	4.58 to 500 nM	
CCCS(=O)(=O)NC(=O)c1ccc2c(C3CCCCC3)c3n(c2c1)CC1(C(=O)N2CCC4(CCCN4C)CC2)CC1c1cc(OC)ccc1-3 (stereo not drawn)	4.58 to 500 nM	4.58 to 500 nM	
COc1ccc2c(c1)C1CC1(C(=O)N1CCC3(CCNC3)C1)Cn1c-2c(C2CCCCC2)c2ccc(C(=O)NS(=O)(=O)C(C)C)cc21 (stereo not drawn)	4.58 to 500 nM	4.58 to 500 nM	
COc1ccc2c(c1)C1CC1(C(=O)N1CCC3(CCCN3C(=O)OC(C)(C)C)CC1)Cn1c-2c(C2CCCCC2)c2ccc(C(=O)NS(=O)(=O)C(C)C)cc21 (stereo not drawn)	4.58 to 500 nM	4.58 to 500 nM	
COc1ccc2c(c1)C=C(C(=O)N1CCCC13CCN(C)CC3)Cn1c-2c(C2CCCCC2)c2ccc(C(=O)NS(=O)(=O)C(C)C)cc21	4.58 to 500 nM	4.58 to 500 nM	
CCCS(=O)(=O)NC(=O)c1ccc2c(C3CCCCC3)c3n(c2c1)CC1(C(=O)N2CCCC4(CCN(C)C4)C2)CC1c1cc(OC)ccc1-3 (stereo not drawn) [drawing 25]	4.58 to 500 nM	4.58 to 500 nM	
COc1ccc2c(c1)C1CC1(C(=O)N1CCNC3(CCCC3)C1)Cn1c-2c(C2CCCCC2)c2ccc(C(=O)NS(=O)(=O)C(C)C)cc21 (stereo not drawn)	4.58 to 500 nM	4.58 to 500 nM	
CCCS(=O)(=O)NC(=O)c1ccc2c(C3CCCCC3)c3n(c2c1)CC1(C(=O)N2CCCC24CCN(C)CC4)CC1c1cc(OC)ccc1-3 (stereo not drawn)	4.58 to 500 nM	4.58 to 500 nM	
COc1ccc2c(c1)C1CC1(C(=O)N1CCC3(CCCN3C(C)=O)CC1)Cn1c-2c(C2CCCCC2)c2ccc(C(=O)NS(=O)(=O)C(C)C)cc21 (stereo not drawn)	4.58 to 500 nM	4.58 to 500 nM	
COc1ccc2c(c1)C1CC1(C(=O)N1CCCC3(CCN(C)C3=O)C1)Cn1c-2c(C2CCCCC2)c2ccc(C(=O)NS(=O)(=O)C(C)C)cc21 (stereo not drawn) [drawing 22]	4.58 to 500 nM		4.58 to 500 nM
COc1ccc2c(c1)C1CC1(C(=O)N1CCCC3(CCN(C)C3=O)C1)Cn1c-2c(C2CCCCC2)c2ccc(C(=O)NS(=O)(=O)C3CC3)cc21 (stereo not drawn)	4.58 to 500 nM	4.58 to 500 nM	
COc1ccc2c(c1)C1CC1(C(=O)N1CCC3(CCCN3)CC1)Cn1c-2c(C2CCCCC2)c2ccc(C(=O)NS(=O)(=O)C(C)C)cc21 (stereo not drawn)	4.58 to 500 nM	4.58 to 500 nM	
